# Results taken from patent US5191072A, “Lipid A monosaccharide analogues” (priority 1989, dated 1993).
# Where two headings read alike, the source gives them in different places.
# What was measured:
# TNF = test: TNF-producing activity (TNF titer in serum of mice, cytotoxicity assay using L929 cells); type: in vivo; details: 10 μg/mouse intravenously, Corynebacterium parvum-primed ICR mouse, serum at 90 minutes; titer = reciprocal of dilution showing 50% cytotoxicity
# Protocol: TNF-producing activity was evaluated utilizing the following experiment system.
# The first stimulating agent, 5% Corynebacterium parvum suspension (0.2 ml physiological saline solution) was intravenously administered to ICR mouse (female, 6-7 week-aged). Nine days later, the second stimulating agent, the compound of this invention was intravenously administered to the same mouse at 10 μg/mouse. In 90 minutes, 0.5-1 ml of blood was taken from the retro orbital plexus. The obtained blood was allowed to clot at room temperature for five to six hours, and centrifuged at 7200×g for five minutes to separate serum. The obtained serum was incubated at 56° C. for 30 minutes for inactivation before use in the following experiment.
# TNF activity in the serum was measured with cytotoxicity assay using L929 cells. L929 cells were prepared in concentration of 6×10^4 cells/well (0.1 ml) RPMI 1640 medium containing 10% FBS and 2 μg/ml actinomycin D in 96-well plates. Serial dilution of obtained serum in RPMI 1640 medium containing 10% FBS was added to each well in the plate (0.1 ml/well). After a 48 hr incubation at 37° C., the viable cells were fixed with methanol. […] Next, absorbance at 550 nm was measured. Finally, cytotoxicity ratio (%) was calculated according to the following formula, and the reciprocal of dilution of the serum showing 50% cytotoxicity was determined for TNF titer in serum (U/ml). […]
# neutrophils = test: O2^- production stimulating activity in neutrophils; type: cell-based, C3 H/HeN mouse; details: Neutrophil, 1 h, read-out: Stimulation %
# Protocol: O2^- Production Stimulating Activity in Neutrophils
# O2^- production stimulating activity in neutrophils was evaluated utilizing the following experimental system [see J. Exp. Med., 160, 1656-1671, 1984]. To the peritoneal cavity of C3 H/HeN mouse (male, 8-9 week-aged), physiological saline containing 0.2% (w/v) casein was administered. Three hours later, peritoneal exudate cells (90% or more of which are neutrophils) were collected. These cells (1.7×10^6 cells/ml/tube) were incubated in the presence of the compound according to this invention (1 μg/ml) at 37° C. for 60 minutes. After addition of 80 μM of cytochrome C and 0.1 μM of formyl-methionyl-leucyl-phenylalanine (FMLP), the mixture was incubated in the presence of or in the absence of Superoxide dismutase (SOD) at 37° C. for 10 minutes. Then, SOD-inhibitable cytochrome C reduction was estimated from the difference between absorbances at 550 nm and 541.7 nm, and from molar absorption coefficient (16.5×10^3). O2^- production-stimulating activity was shown in Stimulation % in the following formula.
# Stimulation %=(the amount of O2^- produced in the presence of compounds of the invention)/(the amount of O2^- produced in the absence of compounds of the invention)×100-100
# [1] = Lethal toxicity in galactosamine-sensitized mice; type: in vivo; details: galactosamine-sensitized mice; intravenous, C57BL mouse, D-galactosamine/HCl 10 mg/mouse i.p.; observed to seventh day; read-out: LD50 (galactosamine load)
# Protocol: (§1) Lethal Toxicity in Galactosamine-Sensitized Mice
# (§2) Lethal toxicity in galactosamin-sensitized mice was evaluated by utilizing the following experiment system [see J.Biochem., 98, 395-406 pp., 1985].
# (§3) To C57BL mouse (male, 7-week aged), 10 mg/mouse of D-galactosamine/HCl was intraperitoneally administered. Immediately after that, the compound of this invention was intravenously administered. After these administrations, general conditions of the mouse were observed every one hour for seven hours, and every day from the following day to the seventh day.
# E.coli. 589 strain = test: Nonspecific protective activity against bacterial infection in immunosuppressed mouse; type: in vivo; details: ICR mice, cyclophosphamide 200 mg/kg, E.coli 1.0×10^7 CFU/mouse i.p.
# Protocol: Nonspecific Protective Activity Against Bacterial Infection in Immunosuppressed Mouse
# Protective effect against bacterial infection in immunosuppressed mouse was evaluated by utilizing the following experiment system.
# To a group of ten ICR mice (male, 5-week aged), cyclophosphamide (200 mg/kg) was intraperitoneally administered. Three days later, the compound of this invention was also intraperitoneally administered. Twenty four hours later, E.coli. 589 strain, was intraperitoneally inoculated at 1.0×10^7 CFU/mouse. The protective activities against infection was evaluated from survival rate (%) of mice after six days of bacterial infection.
# [2] = system: galactosamine-sensitized mice; test: Lethal toxicity in galactosamine-sensitized mice; type: in vivo; details: intravenous, C57BL mouse, D-galactosamine/HCl 10 mg/mouse i.p.; observed to seventh day; 10080 min
# Protocol: as §1, §2, §3
# [3] = compound 1 μg/ml, 37° C., 60 minutes, 0.1 μM FMLP, mouse peritoneal exudate cells
SMILES,the amount of the TNF in serum (TNF),activation at 1 µg/mL (neutrophils; [3]),activation at 1 µg/mL (neutrophils; Mus musculus),LD50 at 168 h [1],survival rate of mice after six days of infection (E.coli. 589 strain; 0.05 mg/kg i.p.),further results
"CCCCCCCCCCCCC(CCCCCCCCCCC)CC(=O)O[C@H]1[C@H](OP(=O)(O)O)[C@@H](CO)OC(O)[C@@H]1NC(=O)C[C@H](O)CCCCCCCCCCC (mixture of isomers) [Compound 46, 2-deoxy-2-[(3R)-3-hydroxytetradecanamido]-4-O-phosphono-3-O-[(3RS)-3-undecylpentadecanoyl]-D-glucopyranose]",292354 U/ml,–,–,–,–,–
"CCCCCCCCCCCCCCC(CCCCCCCCCCC)CC(=O)O[C@H]1[C@H](OP(=O)(O)O)[C@@H](CO)OC(O)[C@@H]1NC(=O)C[C@H](O)CCCCCCCCCCC (mixture of isomers) [Compound 47, 2-deoxy-2-[(3R)-3-hydroxytetradecanamido]-4-O-phosphono-3-O-[(3RS)-3-undecylheptadecanoyl]-D-glucopyranose]",–,73%,–,–,–,–
"CCCCCCCCCCCCCCCCC(CCCCCCCCCCC)CC(=O)O[C@H]1[C@H](OP(=O)(O)O)[C@@H](CO)OC(O)[C@@H]1NC(=O)C[C@H](O)CCCCCCCCCCC (mixture of isomers) [Compound 48, 2-deoxy-2-[(3R)-3-hydroxytetradecanamido]-4-O-phosphono-3-O-[(3RS)-3-undecylnonadecanoyl]-D-glucopyranose]",–,69%,–,–,–,–
CCCCCCCCCCCCCCC(CCCCCCCCCCC)CC(=O)O[C@H]1[C@H](OP(=O)(O)O)[C@@H](CO)OC[C@@H]1NC(=O)C[C@H](O)CCCCCCCCCCC (stereo partly shown) [Compound 47*],–,–,111%,11.8 µg/kg,–,–
"CCCCCCCCCCCCCC(=O)OC(CCCCCCCCCCC)CC(=O)O[C@H]1[C@H](OP(=O)(O)O)[C@@H](CO)OC(O)[C@@H]1NC(=O)CC(O)CCCCCCCCCCC (stereo partly drawn) [GLA60, 2-deoxy-2-(3-hydroxytetradecanaymidno)-4-0-phosphorno-3-0-[(3-O-tetradecanoyl)-tetradecanoyl]-D-glucopyranose]",216809 U/ml,–,71%,3 µg/kg,43%,survival rate of mice after six days of infection (E.coli. 589 strain; 0.005 mg/kg i.p.): 33%; survival rate of mice after six days of infection (E.coli. 589 strain; 0.5 mg/kg i.p.): 70%
CCCCCCCCCCCCCC(=O)OC(CCCCCCCCCCC)CC(=O)NC1C(OCC2OC(OP(=O)(O)O)C(NC(=O)CC(O)CCCCCCCCCCC)C(OC(=O)CC(O)CCCCCCCCCCC)C2O)OC(CO)C(OP(=O)(O)O)C1OC(=O)CC(CCCCCCCCCCC)OC(=O)CCCCCCCCCCCCC (stereo not shown) [Lipid A],–,–,–,–,75%,LD50 (galactosamine load) [2]: 0.3 µg/kg
